Assay results taken from patent publication US20220259235A1, “EGFR Inhibitor, Composition, and Preparation Method Therefor” (BETTA PHARMACEUTICALS CO., LTD, priority 2019, published 2022).
pIC50: −log10 of the molar value.

Legend:
[1] = target: Ba/F3-L858R/T790M/C797S (Homo sapiens, UniProt P00533, T790M/C797S/L858R, cells depend on it); assay: Ba/F3-L858R/T790M/C797S cell proliferation assay (CellTiter Glo, 72 h); format: cell-based; conditions: CTG, numeric values, read-out: BaF3 L858R/T790M/C797S IC50
Sequence of Ba/F3-L858R/T790M/C797S (P00533 whole entry T790M/C797S/L858R): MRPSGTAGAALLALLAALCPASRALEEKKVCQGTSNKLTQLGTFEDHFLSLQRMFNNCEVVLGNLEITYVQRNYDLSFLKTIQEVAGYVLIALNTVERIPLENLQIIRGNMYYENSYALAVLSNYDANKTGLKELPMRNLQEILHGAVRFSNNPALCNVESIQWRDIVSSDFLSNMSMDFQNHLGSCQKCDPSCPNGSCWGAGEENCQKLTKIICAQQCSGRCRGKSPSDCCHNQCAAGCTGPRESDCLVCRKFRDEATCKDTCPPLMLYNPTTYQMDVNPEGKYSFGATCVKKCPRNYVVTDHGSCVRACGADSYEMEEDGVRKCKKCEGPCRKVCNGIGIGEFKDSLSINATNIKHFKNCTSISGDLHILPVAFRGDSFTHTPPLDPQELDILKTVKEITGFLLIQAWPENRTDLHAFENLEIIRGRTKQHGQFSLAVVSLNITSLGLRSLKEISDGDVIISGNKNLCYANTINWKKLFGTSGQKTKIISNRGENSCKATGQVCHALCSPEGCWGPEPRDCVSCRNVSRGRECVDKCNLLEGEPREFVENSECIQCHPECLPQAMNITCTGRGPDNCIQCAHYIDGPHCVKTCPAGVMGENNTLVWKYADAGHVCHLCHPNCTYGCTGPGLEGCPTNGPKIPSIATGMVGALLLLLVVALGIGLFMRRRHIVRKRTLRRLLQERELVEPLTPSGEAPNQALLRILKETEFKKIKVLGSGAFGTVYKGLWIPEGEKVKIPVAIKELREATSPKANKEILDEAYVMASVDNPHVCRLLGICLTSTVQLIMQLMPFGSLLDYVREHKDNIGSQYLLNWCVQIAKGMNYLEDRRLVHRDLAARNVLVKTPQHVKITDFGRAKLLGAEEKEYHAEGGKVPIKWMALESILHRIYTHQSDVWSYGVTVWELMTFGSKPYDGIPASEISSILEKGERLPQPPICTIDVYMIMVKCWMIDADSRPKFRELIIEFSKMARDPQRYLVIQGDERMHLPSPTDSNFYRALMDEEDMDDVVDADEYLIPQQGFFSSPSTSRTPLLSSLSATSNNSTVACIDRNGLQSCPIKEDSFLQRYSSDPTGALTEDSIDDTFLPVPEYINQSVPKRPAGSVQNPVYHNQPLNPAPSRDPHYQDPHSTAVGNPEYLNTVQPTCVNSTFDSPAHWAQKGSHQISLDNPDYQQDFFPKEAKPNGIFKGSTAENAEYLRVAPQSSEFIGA
Experimental: (§1) Cell line: Ba/F3 cells with stable overexpression of Δ19del/T790M/C797S or L858R/T790M/C797S mutant genes, named Ba/F3-Δ19del/T790M/C797S and Ba/F3-L858R/T790M/C797S, and A431 EGFR wild-type cell line.
(§2) RPMI 1640 and 10% FBS and 1% PS; _EM, 10% PBS and 1% PS
(§3) a) Dilute the test compound (20 mM stock solution) to 10 mM with 100% DMSO as the starting concentration, and then serially dilute 3 times with a “9+0” concentration in 96-well dilution plate (Cat #P-05525, Labcyte);
(§4) b) Dilute compound solution thereof to 1:100 in medium to prepare 10-fold working solution;
(§5) a) Centrifuge the growth cells in logarithmic phase at 1000 rpm for 5 minutes, resuspend the cells in culture medium, and then count the cells;
(§6) b) Inoculate the cells into a 96-well cell culture plate with a density of 2000 cells/well;
(§7) a) The compound prepared in Step 2 was added to a cell plate with 15 μL per well at final concentrations of 1000, 333, 111.1, 37, 12.3, 4.1, 1.4, 0.5, 0.2, and 0 nM. The final concentration of DMSO was 0.1%. The blank control well is with medium (0.1% DMSO).
(§8) b) Incubate cells in an incubatorother 72 hours;
(§9) a) Take out the 96-well cell culture plate and add 50 μl CTG reagent (CellTiter Glo kit, promega, Cat #G7573);
(§10) b) Shake the plate for 2 minutes and let cool at room temperature for 10 minutes,
(§11) c) Read luminous signal value with Perkin Elmer reader.
(§12) Analysis of Experimental Data
(§13) The data were analyzed by GraphPad Prism 6.0 software to obtain the fitting curve of compound activity.
(§14) Fining compound IC50 from nonlinear regression equation:
(§15) Y=Min+(Max−Min)/(1+10^((LogIC50−X)*slope));
(§16) X: Logarithm of compound concentration; Y: luminous signal
(§17) As illustrated in examples, IC50 value is within the following range for the compound of the present invention: “A” represents “IC50≤50 nM”; “B” represents “50 nM<IC50<100 nM”.

[2] = target: Ba/F3-Δ19del/T790M/C797S (Homo sapiens, UniProt P00533, T790M/C797S, cells depend on it, form not given); assay: Ba/F3-Δ19del/T790M/C797S cell proliferation assay (CellTiter Glo, 72 h); format: cell-based; conditions: CTG, numeric values, read-out: BaF3 Δ19del/T790M/C797S IC50
Sequence of Ba/F3-Δ19del/T790M/C797S (P00533 with tags, fused parts or gaps DEL746-750/T790M/C797S, form open): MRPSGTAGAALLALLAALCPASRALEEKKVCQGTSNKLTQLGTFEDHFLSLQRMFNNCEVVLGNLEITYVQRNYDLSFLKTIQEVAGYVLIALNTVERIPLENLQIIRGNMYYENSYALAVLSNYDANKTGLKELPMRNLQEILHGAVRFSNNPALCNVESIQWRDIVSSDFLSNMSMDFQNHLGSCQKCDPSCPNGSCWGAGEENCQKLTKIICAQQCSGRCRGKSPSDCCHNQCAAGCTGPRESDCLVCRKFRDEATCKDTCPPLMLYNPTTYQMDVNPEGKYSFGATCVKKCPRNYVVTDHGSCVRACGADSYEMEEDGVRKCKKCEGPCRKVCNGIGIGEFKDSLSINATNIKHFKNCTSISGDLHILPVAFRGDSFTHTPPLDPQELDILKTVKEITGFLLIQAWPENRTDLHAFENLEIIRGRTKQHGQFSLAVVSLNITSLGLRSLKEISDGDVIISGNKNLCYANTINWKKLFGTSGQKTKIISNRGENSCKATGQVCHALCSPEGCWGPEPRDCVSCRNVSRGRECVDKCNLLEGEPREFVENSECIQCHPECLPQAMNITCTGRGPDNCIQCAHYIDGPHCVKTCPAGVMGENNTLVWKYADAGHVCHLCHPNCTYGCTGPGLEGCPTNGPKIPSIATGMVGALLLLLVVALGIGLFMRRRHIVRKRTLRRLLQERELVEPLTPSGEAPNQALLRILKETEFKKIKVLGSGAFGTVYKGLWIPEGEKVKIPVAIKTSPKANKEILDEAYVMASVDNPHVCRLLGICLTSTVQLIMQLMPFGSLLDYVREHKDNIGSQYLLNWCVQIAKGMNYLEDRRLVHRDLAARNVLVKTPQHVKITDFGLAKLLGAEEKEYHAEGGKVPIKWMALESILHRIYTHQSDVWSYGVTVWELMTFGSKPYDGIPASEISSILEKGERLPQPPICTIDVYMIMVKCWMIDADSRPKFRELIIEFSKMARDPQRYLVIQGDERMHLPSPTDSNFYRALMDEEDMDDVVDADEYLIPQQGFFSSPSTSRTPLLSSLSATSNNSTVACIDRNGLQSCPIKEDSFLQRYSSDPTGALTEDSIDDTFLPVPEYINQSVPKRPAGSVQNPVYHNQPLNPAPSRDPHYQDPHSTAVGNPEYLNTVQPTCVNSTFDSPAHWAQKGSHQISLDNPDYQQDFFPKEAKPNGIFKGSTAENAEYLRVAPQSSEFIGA
Experimental: as §1, §2, §3, §4, §5, §6, §7, §8, §9, §10, §11, §12, §13, §14, §15, §16, §17

[3] = test system: A431 EGFR wild-type cell line; assay: A431 EGFR wild-type cell proliferation assay (CellTiter Glo, 72 h); format: cell-based; conditions: Homo sapiens, A-431, CTG, read-out: A431 EGFR WT IC50
Experimental: as §1, §2, §3, §4, §5, §6, §7, §8, §9, §10, §11, §12, §13, §14, §15, §16, §17

[4] = Liver microsomal clearance test, human; format: in vitro ADME; conditions: Human liver microsomes, 0.5 mg/mL, NADPH
Experimental: (§18) Test 3 Liver Microsomal Clearance Test
(§19) 1. Prepare 0.5 mg/mL liver microsome diluent containing K-butter and MgCl2:
(§20) 2.1 Take 356 μL of the liver microsome diluent prepared above and add it to the preset wells of the incubation plate, the number of multiple wells n=1, mark it as the incubation plate.
(§21) 2.2 Take 4 μL of the positive control compound Verapamil (50 μM) and the working solution of the test compound (200 μM) into the above incubation plate containing 356 μL of liver microsome diluent, and mix well (The dilution solvent from the stock solution to the working solution is a mixed solvent of acetonitrile: methanol: water=1:1:2, and the final concentration of DMSO is ≤0.5%),
(§22) 2.3 Place the incubation plate in a 37° C. thermostatic oscillator (at shaking speed of 100 rpm) for pre-incubation with 10 min.
(§23) 2.4 Add 40 μL of 10 mM NADPH (add 40 μL of K-buffer to the wells without NADPH) to each reaction well to start the reaction and start timing.
(§24) 3. Sample collection and treatment:
(§25) 3.1 After adding NADPH to start the reaction, immediately take out 50 μL of the sample and add it to the precipitation plate pre-added with 400 μL of stop solution, and shake on an oscillator at 600 rpm for 5 min at room temperature as a 0 min sample.
(§26) 3.2 At the predetermined time points of 5 min, 15 min and 45 min, take out 50 μL of sample from the incubation plate and add it to the precipitation plate. The subsequent steps were the same as the treatment of 0 min sample. 3.3 After balancing, centrifuge above precipitation plate at 3200 rpm for 10 min at 4° C.
(§27) 3.4 Take 50 μL of the supernatant after centrifugation and add it to pre-added 20% acetonitrile water at appropriate proportion, shake on an oscillator at 600 rpm for 2 min at room temperature, mix well, and put it into the LC-MS/MS sampler for sample injection.
as §12
1. […]

[5] = Liver microsomal clearance test, monkey; format: in vitro ADME; conditions: Monkey liver microsomes, 0.5 mg/mL, NADPH
Experimental: as §18, §19, §20, §21, §22, §23, §24, §25, §26, §27, §12
1. […]

[6] = Liver microsomal clearance test, dog; format: in vitro ADME; conditions: Dog liver microsomes, 0.5 mg/mL, NADPH
Experimental: as §18, §19, §20, §21, §22, §23, §24, §25, §26, §27, §12
1. […]

[7] = Liver microsomal clearance test, rat; format: in vitro ADME; conditions: Rat liver microsomes, 0.5 mg/mL, NADPH
Experimental: as §18, §19, §20, §21, §22, §23, §24, §25, §26, §27, §12
1. […]

[8] = Liver microsomal clearance test, mice; format: in vitro ADME; conditions: Mice liver microsomes, 0.5 mg/mL, NADPH
Experimental: as §18, §19, §20, §21, §22, §23, §24, §25, §26, §27, §12
1. […]

[9] = target: T1, hERG protein (Homo sapiens, UniProt Q12809); assay: hERG IC50 test (tracer/membranes fluorescence polarization); format: binding; conditions: hERG membranes and tracer, read-out: IC50 results of hERG protein to compound
T1 construct: purchased
T1 sequence (Q12809 whole entry): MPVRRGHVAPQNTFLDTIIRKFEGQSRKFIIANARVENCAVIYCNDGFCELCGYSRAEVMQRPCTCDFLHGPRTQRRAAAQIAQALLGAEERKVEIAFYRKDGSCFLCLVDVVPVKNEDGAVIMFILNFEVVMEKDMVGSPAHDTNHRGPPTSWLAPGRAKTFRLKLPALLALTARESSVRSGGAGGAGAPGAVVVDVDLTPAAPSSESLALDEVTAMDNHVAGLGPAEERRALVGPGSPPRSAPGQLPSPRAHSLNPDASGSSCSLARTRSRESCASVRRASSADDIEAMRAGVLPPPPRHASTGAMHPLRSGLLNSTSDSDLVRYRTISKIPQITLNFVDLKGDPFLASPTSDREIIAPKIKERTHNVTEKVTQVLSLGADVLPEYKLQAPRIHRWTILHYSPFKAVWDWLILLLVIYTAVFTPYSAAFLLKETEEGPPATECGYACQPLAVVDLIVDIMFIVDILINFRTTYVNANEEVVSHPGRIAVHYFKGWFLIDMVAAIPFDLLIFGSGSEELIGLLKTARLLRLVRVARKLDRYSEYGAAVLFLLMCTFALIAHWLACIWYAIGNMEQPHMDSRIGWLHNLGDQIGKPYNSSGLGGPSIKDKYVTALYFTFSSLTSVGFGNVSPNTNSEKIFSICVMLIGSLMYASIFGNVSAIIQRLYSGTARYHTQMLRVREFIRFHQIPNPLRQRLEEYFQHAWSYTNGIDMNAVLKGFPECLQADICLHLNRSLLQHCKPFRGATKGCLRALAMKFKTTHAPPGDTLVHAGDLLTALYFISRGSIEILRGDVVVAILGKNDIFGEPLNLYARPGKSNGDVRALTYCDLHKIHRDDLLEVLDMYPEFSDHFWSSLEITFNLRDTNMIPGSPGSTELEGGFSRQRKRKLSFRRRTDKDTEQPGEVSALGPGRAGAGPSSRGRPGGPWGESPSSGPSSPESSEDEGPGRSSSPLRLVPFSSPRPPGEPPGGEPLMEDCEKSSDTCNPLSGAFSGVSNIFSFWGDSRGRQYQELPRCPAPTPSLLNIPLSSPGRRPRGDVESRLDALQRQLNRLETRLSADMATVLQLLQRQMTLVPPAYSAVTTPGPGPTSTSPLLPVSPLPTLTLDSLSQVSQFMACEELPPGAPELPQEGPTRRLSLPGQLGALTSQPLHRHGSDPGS
Experimental: 1. Thaw hERG kits (Tracer, E-4031 and Membranes) at room temperature;
2. Add 10 μL of positive compound E-4031 and 10 μL of test compound (10 mM) to 384 well plate (Corning, Art. No. 3658);
3. E-4031 is sequentially 5-fold diluted by pure water (10 concentration points in total), and the test compound is sequentially 5-fold diluted by DMSO (10 concentration points in total).
4. Take 1 μL of all gradient concentrations and add them in parallel to the wells containing 24 μL Assay buffer, and dilute 25 times (take 3 μL of the maximum concentration of E-4031 and add it to 72 μL Assay buffer).
5. Add 10 μL Membranes to another black 384-well plate (Coming, Art.4511).
6. Take 5 μL of 25-fold diluted working solution of positive and test compounds, and add it to above-mentioned plate with 10 μL Membranes, 2 copies at each concentration.
7. Negative control: Add 5 μL Assay buffer to the well with 10 μL Membranes, 8 copies in parallel;
8. Positive control: Add 5 μL E-4031 (120 μM) to the well with 10 μL Membranes, 8 copies in parallel;
9. […]
10. Before measuring the fluorescence polarization, cover the analysis plate to protect the reagents from light and evaporation, and incubate at room temperature (20-25° C.) for 2 hours.
11. Read fluorescence polarization in PerkinElmer EnVision® Multilabel after incubation; […]

- GI50 [1]: 16.7 nM
- GI50 [2]: 22 nM
- pIC50 [3]: 6.43
- Instrinsic clearance of liver microsomal protein, CLint [4]: 17.4 μL/min/mg proteins
- Instrinsic clearance of liver microsomal protein, CLint [5]: 65.4 μL/min/mg proteins
- Instrinsic clearance of liver microsomal protein, CLint [6]: 15.6 μL/min/mg proteins
- Instrinsic clearance of liver microsomal protein, CLint [7]: 22 μL/min/mg proteins
- Instrinsic clearance of liver microsomal protein, CLint [8]: 16.4 μL/min/mg proteins
SMILES: COc1cc(N2CCC(N3CCN(C)CC3)CC2)c(C)cc1Nc1ncc(Br)c(Nc2ccc3nccnc3c2P(C)(C)=O)n1 [A, reference compound]
- pIC50 [9]: 4.87
